The values that follow come from PubChem BioAssay AID1912 (The Scripps Research Institute Molecular Screening Center, 2009).

Active and inactive are the calls of the source. The rule behind the calls is not given here.

As usually defined, the IC50 is the midpoint of a concentration-inhibition curve.

Luciferin 4-monooxygenase (Photinus pyralis), sequence (P08659 whole entry, looked up): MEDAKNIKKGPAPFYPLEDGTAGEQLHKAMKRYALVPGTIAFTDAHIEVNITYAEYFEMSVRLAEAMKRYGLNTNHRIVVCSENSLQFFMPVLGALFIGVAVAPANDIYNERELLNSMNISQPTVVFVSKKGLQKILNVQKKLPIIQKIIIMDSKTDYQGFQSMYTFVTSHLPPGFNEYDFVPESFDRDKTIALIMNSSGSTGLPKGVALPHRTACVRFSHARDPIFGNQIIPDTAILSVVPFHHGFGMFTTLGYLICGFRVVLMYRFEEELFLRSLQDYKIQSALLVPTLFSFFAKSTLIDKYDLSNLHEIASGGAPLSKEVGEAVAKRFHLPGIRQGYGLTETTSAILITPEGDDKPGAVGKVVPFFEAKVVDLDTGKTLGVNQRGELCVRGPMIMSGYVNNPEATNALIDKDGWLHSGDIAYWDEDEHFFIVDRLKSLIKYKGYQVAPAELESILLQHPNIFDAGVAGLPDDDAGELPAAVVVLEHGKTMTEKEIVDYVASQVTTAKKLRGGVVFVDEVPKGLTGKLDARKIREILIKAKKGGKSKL

The assay has as its target Luciferin 4-monooxygenase (Photinus pyralis) (UniProt P08659). Nature of the assay: firefly luciferase inhibitor potency, HSP90 counter-screen, dose response, artefact control for HSP90 inhibitor project, biochemical, luminescence (AID 1912). The conditions noted are these: purified firefly luciferase, luminescence inhibition. On the technique in general: The purpose of a counterscreen is to sort out artefacts and off-target activity.
In the case of `CC(=O)Nc1ccc(NC2=C/C(=N/S(=O)(=O)c3cccs3)c3ccccc3C2=O)cc1`, the IC50 was > 60 µM (inactive).

As to `C=CCOc1c(CNc2cccc(C(=O)O)c2)cccc1OC`, the IC50 is > 60 µM (inactive).

Turning to `CCOC(=O)c1ccc(-c2ccc(C=O)o2)cc1`, the IC50 was > 60 µM (inactive).

Turning to `O=C1C(Nc2ccccc2)=C/C(=N/S(=O)(=O)c2cccs2)c2ccccc21`, the IC50 result was “inactive”.

As for `Cc1cc(C(=O)Cn2nc(C(=O)O)c3ccccc3c2=O)c(C)n1CC(F)(F)F`, the IC50 is > 60 µM (inactive).

Take `COC(=O)C[C@]1(C(=O)OC)CN(C#N)N(c2ccc(Cl)cc2)C12c1ccccc1-c1ccccc12`: the IC50 is > 60 µM (inactive).

Regarding `Cc1ccc(OCc2ccc(C(=O)O)o2)cc1C`, the IC50 entry is “inactive”.

With `Cc1c(-c2nc(-c3ccc(C(C)(C)C)cc3)no2)n(C)oc1=O`, the IC50 was > 60 µM (inactive).

As for `O=S(=O)(Cc1ccccc1)N(O)c1ccccc1`, the IC50 was > 60 µM (inactive).

Regarding `CCOC(=O)c1csc(NC(=O)c2ccc(OCC)cc2)n1`, the IC50 is > 60 µM (inactive).

On to `COc1ccc(C(=O)Oc2ccc(/C=N/Nc3ccc(Cl)c(C(=O)O)c3)cc2OC)cc1`, for which the IC50 was > 60 µM (inactive).

Take `O=C(CN1C(=O)c2ccccc2S1(=O)=O)c1ccc2c(c1)OCCO2`: the IC50 was > 60 µM (inactive).

Turning to `Cc1ccc(S(=O)(=O)/N=C2\C=C(Nc3cccc(C(=O)O)c3)C(=O)c3ccccc32)c(C)c1`, the IC50 was > 60 µM (inactive).

`COc1ccc(N(/N=C2\Sc3ccccc3C2=O)C(C)=O)cc1`: the IC50 is > 60 µM (inactive).

With `CCc1ccc(OCc2ccc(C(=O)OC)o2)cc1`, the IC50 was > 60 µM (inactive).

For `O=c1oc2ccc(Cl)cc2nc1/C=C(\O)c1cccs1`, the IC50 was > 60 µM (inactive).

Consider `CCCCn1c(NC(=O)c2ccccc2Cl)c(C#N)c2nc3ccccc3nc21`, for which the IC50 is > 60 µM (inactive).

As to `Cc1ccc(C(=O)CN2C(=O)c3ccccc3S2(=O)=O)cc1`, the IC50 is > 60 µM (inactive).

Regarding `COc1cc(/C=N/Nc2ccc(Cl)c(C(=O)O)c2)ccc1OC(=O)c1ccc(F)cc1`, the IC50 was > 60 µM (inactive).

In the case of `C#CCn1cc(/C=C2\NC(=O)NC2=O)c2ccccc21`, the IC50 is > 60 µM (inactive).

On to `COC(=O)NCCOC(=O)N(O)c1ccc(Br)cc1`, for which the IC50 was > 60 µM (inactive).

With `CCc1ccc(S(=O)(=O)/N=C2\C=C(Nc3ccc(O)cc3)C(=O)c3ccccc32)cc1`, the IC50 is > 60 µM (inactive).

As for `O=C(O)c1ccc(NC2=C/C(=N/S(=O)(=O)c3ccccc3)c3ccccc3C2=O)cc1`, the IC50 was > 60 µM (inactive).

Consider `Cc1nc(NC(=O)c2ccc(F)cc2)sc1C(=O)Nc1ccc2c(c1)CCC2`, for which the IC50 is > 60 µM (inactive).

With `Cc1ccccc1NC1=C/C(=N\S(=O)(=O)c2cccs2)c2ccccc2C1=O`, the IC50 is > 20 µM (inactive).

For `Cc1cc(C)c2nc(N3CCC(C(=O)NCCCN4CC(C)CC(C)C4)CC3)sc2c1` (configuration not stated), the IC50 was > 60 µM (inactive).

As to `CC1CCN(c2ccc(-c3cccc(NC(=O)C(F)(F)F)c3)nn2)CC1`, the IC50 was > 60 µM (inactive).

As for `COc1ccccc1NC(=O)c1coc(=O)c(Br)c1`, the IC50 was > 60 µM (inactive).

Turning to `COc1ccc(/C=C/c2noc(-c3ccccc3OC(C)=O)n2)cc1`, the IC50 result was “inactive”.

On to `C=CCOC(=O)c1sc(NC(=O)c2ccc(OC)cc2)nc1C`, for which the IC50 is > 60 µM (inactive).

For `Cc1cc(NC(=O)c2coc(=O)c(Br)c2)ccc1C(C)C`, the IC50 was > 60 µM (inactive).

In the case of `COc1ccc(-c2cn3c(C)c(C(=O)Nc4cccc(C)n4)sc3n2)cc1`, the IC50 result was “inactive”.

For the molecule `COCC(C)n1c(C)cc(C(=O)Cn2nc(C(=O)O)c3ccccc3c2=O)c1C` (configuration not stated), the IC50 was > 60 µM (inactive).

As to `CNC(=S)N/N=C/c1ccc(-c2ccc(C(=O)O)cc2)o1`, the IC50 was > 60 µM (inactive).

With `Cc1cc2ccccc2n1CCNC(=O)c1cccs1`, the IC50 is > 60 µM (inactive).

In the case of `O=C(O)CSCC(=O)Nc1ccc(C2CCCCC2)cc1`, the IC50 was > 60 µM (inactive).

In the case of `CC(=O)Oc1ccc(Nc2ccccc2)cc1`, the IC50 was > 60 µM (inactive).
